BindingDB's records for doi:10.1021/acschembio.6b00747 (The University of Kansas, 2017)

Legend:
[1] = molecular target: Endoplasmin (Homo sapiens, UniProt P14625); assay: Fluorescence Polarization (FP) Assay; conditions: pH 7.3
Method: (§1) Assay buffer (25 μL, 20 mM HEPES at pH 7.3, 50 mM KCl, 5 mM MgCl2, 1 mM DTT, 20 mM Na2MoO4, 0.01% NP-40, and 0.5 mg mL−1 BGG) was added to a 96-well plate (black well, black bottom) followed by the desired compound at the indicated final concentrations in DMSO (1% DMSO final concentration). Subsequently, 10 nM recombinant cGrp94/Hsp90α and 6 nM FITC-GDA were added in 50 and 25 μL assay buffer respectively, resulting in a 100 μL final volume. Plates were incubatedfor 5 h at 4 °C on a rocker. […] Percent FITC-GDA bound was determined by assigning the DMSO millipolarization unit (mP) value as the 100% bound value and 0% for FITC-GDA in assay buffer without any protein.

[2] = molecular target: Heat shock protein HSP 90-alpha (Homo sapiens, UniProt P07900); assay: Fluorescence Polarization (FP) Assay; conditions: pH 7.3
Method: as §1

Sequence of Endoplasmin (P14625 whole entry): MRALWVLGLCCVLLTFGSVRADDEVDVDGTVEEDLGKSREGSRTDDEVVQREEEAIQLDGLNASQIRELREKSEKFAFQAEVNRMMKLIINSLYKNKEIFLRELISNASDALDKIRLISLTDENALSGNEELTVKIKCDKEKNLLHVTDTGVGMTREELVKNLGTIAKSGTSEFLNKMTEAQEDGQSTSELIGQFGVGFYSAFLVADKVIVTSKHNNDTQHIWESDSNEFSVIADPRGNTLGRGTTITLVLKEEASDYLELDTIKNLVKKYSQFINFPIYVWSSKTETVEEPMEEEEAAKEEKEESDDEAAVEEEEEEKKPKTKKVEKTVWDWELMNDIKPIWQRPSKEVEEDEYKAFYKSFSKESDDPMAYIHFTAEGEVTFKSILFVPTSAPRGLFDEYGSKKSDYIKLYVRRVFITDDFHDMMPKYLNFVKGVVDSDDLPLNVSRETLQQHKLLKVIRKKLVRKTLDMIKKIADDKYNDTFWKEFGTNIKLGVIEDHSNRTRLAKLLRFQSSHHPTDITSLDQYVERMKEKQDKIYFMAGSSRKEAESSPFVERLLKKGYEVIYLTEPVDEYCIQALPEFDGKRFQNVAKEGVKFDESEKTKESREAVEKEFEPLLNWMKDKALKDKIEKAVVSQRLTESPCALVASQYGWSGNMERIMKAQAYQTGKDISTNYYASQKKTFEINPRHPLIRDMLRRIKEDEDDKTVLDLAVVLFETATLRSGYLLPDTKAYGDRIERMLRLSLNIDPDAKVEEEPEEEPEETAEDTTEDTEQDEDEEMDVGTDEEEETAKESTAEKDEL

| Compound | Kd [1] [µM] | Kd [2] [µM] |
| --- | --- | --- |
| NC(=O)c1ccc(-n2cccc2Cc2cccc(Cl)c2)cc1NC1CCC(O)CC1 (stereo not given) [4-(2-(3-chlorobenzyl)-1H-pyrrol-1-yl)-2-(((1r,4r)-4-hydroxycyclohexyl)amino)benzamide (8c)] | 2.45 | > 100 |
| NC(=O)c1ccc(-n2cccc2Cc2ccc(F)cc2)cc1NC1CCC(O)CC1 (stereo not given) [4-(2-(4-fluorobenzyl)-1H-pyrrol-1-yl)-2-(((1r,4r)-4-hydroxycyclohexyl)amino)benzamide (8g)] | 8.35 | > 100 |
| NC(=O)c1ccc(-n2cccc2-c2ccc(Cl)cc2)cc1NC1CCC(O)CC1 (stereo not given) [4-(2-(4-chlorophenyl)-1H-pyrrol-1-yl)-2-(((1r,4r)-4-hydroxycyclohexyl)amino)benzamide (5g)] | 10.6 | > 100 |
| NC(=O)c1ccc(-n2cccc2Cc2c(F)cccc2F)cc1N[C@H]1CC[C@H](O)CC1 [4-(2-(2,6-difluorobenzyl)-1H-pyrrol-1-yl)-2-(((1r,4r)-4hydroxycyclohexyl)amino)benzamide (8n)] | > 25 | – |
| NC(=O)c1ccc(-n2cccc2Cc2ccc(O)cc2)cc1NC1CCC(O)CC1 (stereo not given) [4-(2-(4-hydroxybenzyl)-1H-pyrrol-1-yl)-2-(((1r,4r)-4-hydroxycyclohexyl)amino)benzamide (8l)] | – | > 100 |
| NC(=O)c1ccc(-n2cccc2Cc2ccccc2Br)cc1NC1CCC(O)CC1 (stereo not given) [4-(2-(2-bromobenzyl)-1H-pyrrol-1-yl)-2-(((1r,4r)-4-hydroxycyclohexyl)amino)benzamide (8h)] | 12.9 | > 100 |
| NC(=O)c1ccc(-n2cccc2Cc2cccnc2)cc1NC1CCC(O)CC1 (stereo not given) [2-(((1r,4r)-4-hydroxycyclohexyl)amino)-4-(2-(pyridin-3-ylmethyl)-1H-pyrrol-1-yl)benzamide (8p)] | 5.5 | > 100 |
| Cc1ccccc1Cc1cccn1-c1ccc(C(N)=O)c(NC2CCC(O)CC2)c1 (stereo not given) [2-(((1r,4r)-4-hydroxycyclohexyl)amino)-4-(2-(2-methylbenzyl)-1H-pyrrol-1-yl)benzamide (8i)] | 4.2 | > 100 |
| NC(=O)c1ccc(-n2cccc2-c2ccncc2)cc1NC1CCC(O)CC1 (stereo not given) [2-(((1r,4r)-4-hydroxycyclohexyl)amino)-4-(2-(pyridin-4-yl)-1H-pyrrol-1-yl)benzamide (5j)] | 13.2 | > 100 |
| NC(=O)c1ccc(-n2cccc2Cc2ccccc2)cc1NC1CCC(O)CC1 (stereo not given) [4-(2-benzyl-1H-pyrrol-1-yl)-2-(((1r,4r)-4-hydroxycyclohexyl)amino)benzamide (8a)] | 1.13 | > 100 |
| NC(=O)c1ccc(-n2cccc2CCc2ccccc2)cc1NC1CCC(O)CC1 (stereo not given) [2-(((1r,4r)-4-hydroxycyclohexyl)amino)-4-(2-phenethyl-1H-pyrrol-1-yl)benzamide (9)] | > 25 | > 100 |
| NC(=O)c1ccc(-n2cccc2Cc2ccc(Cl)cc2)cc1NC1CCC(O)CC1 (stereo not given) [4-(2-(4-chlorobenzyl)-1H-pyrrol-1-yl)-2-(((1r,4r)-4-hydroxycyclohexyl)amino)benzamide (8d)] | > 25 | > 100 |
| NC(=O)c1ccc(-n2cccc2Cc2ccccc2F)cc1NC1CCC(O)CC1 (stereo not given) [4-(2-(2-fluorobenzyl)-1H-pyrrol-1-yl)-2-(((1r,4r)-4-hydroxycyclohexyl)amino)benzamide (8e)] | 0.72 | > 100 |
| NC(=O)c1ccc(-n2cccc2-c2ccccc2)cc1NC1CCC(O)CC1 (stereo not given) [2-(((1r,4r)-4-hydroxycyclohexyl)amino)-4-(2-phenyl-1H-pyrrol-1-yl)benzamide (5a)] | 9.05 | > 100 |
| COc1ccccc1Cc1cccn1-c1ccc(C(N)=O)c(NC2CCC(O)CC2)c1 (stereo not given) [2-(((1r,4r)-4-hydroxycyclohexyl)amino)-4-(2-(2-methoxybenzyl)-1H-pyrrol-1-yl)benzamide (8m)] | 1.15 | > 100 |
| NC(=O)c1ccc(-n2cccc2Cc2ccccc2Cl)cc1NC1CCC(O)CC1 (stereo not given) [4-(2-(2-chlorobenzyl)-1H-pyrrol-1-yl)-2-(((1r,4r)-4-hydroxycyclohexyl)amino)benzamide (8b)] | 0.83 | > 100 |
| NC(=O)c1ccc(-n2cccc2-c2cccc(Cl)c2)cc1NC1CCC(O)CC1 (stereo not given) [4-(2-(3-chlorophenyl)-1H-pyrrol-1-yl)-2-(((1r,4r)-4-hydroxycyclohexyl)amino)benzamide (5f)] | – | > 100 |
| Cc1ccc(-c2cccn2-c2ccc(C(N)=O)c(NC3CCC(O)CC3)c2)cc1 (stereo not given) [2-(((1r,4r)-4-hydroxycyclohexyl)amino)-4-(2-(p-tolyl)-1H-pyrrol-1-yl)benzamide (5d)] | 8.35 | > 100 |
| NC(=O)c1ccc(-n2cccc2-c2ccccc2Cl)cc1NC1CCC(O)CC1 (stereo not given) [4-(2-(2-chlorophenyl)-1H-pyrrol-1-yl)-2-(((1r,4r)-4-hydroxycyclohexyl)amino)benzamide (5e)] | – | > 100 |
| NC(=O)c1ccc(-n2cccc2-c2cccnc2)cc1NC1CCC(O)CC1 (stereo not given) [2-(((1r,4r)-4-hydroxycyclohexyl)amino)-4-(2-(pyridin-3-yl)-1H-pyrrol-1-yl)benzamide (5i)] | 5.5 | > 100 |
| NC(=O)c1ccc(-n2cccc2-c2ccccn2)cc1NC1CCC(O)CC1 (stereo not given) [2-(((1r,4r)-4-hydroxycyclohexyl)amino)-4-(2-(pyridin-2-yl)-1H-pyrrol-1-yl)benzamide (5h)] | 14 | > 100 |
| Cc1ccccc1-c1cccn1-c1ccc(C(N)=O)c(NC2CCC(O)CC2)c1 (stereo not given) [2-(((1r,4r)-4-hydroxycyclohexyl)amino)-4-(2-(o-tolyl)-1H-pyrrol-1-yl)benzamide (5b)] | 9.9 | > 100 |
| Cc1cccc(-c2cccn2-c2ccc(C(N)=O)c(NC3CCC(O)CC3)c2)c1 (stereo not given) [2-(((1r,4r)-4-hydroxycyclohexyl)amino)-4-(2-(m-tolyl)-1H-pyrrol-1-yl)benzamide (5c)] | 9.43 | > 100 |
| NC(=O)c1ccc(-n2cccc2Cc2ccccn2)cc1NC1CCC(O)CC1 (stereo not given) [2-(((1r,4r)-4-hydroxycyclohexyl)amino)-4-(2-(pyridin-2-ylmethyl)-1H-pyrrol-1-yl)benzamide (8o)] | 14 | > 100 |
| NC(=O)c1ccc(-n2cccc2Cc2cccc(F)c2)cc1NC1CCC(O)CC1 (stereo not given) [4-(2-(3-fluorobenzyl)-1H-pyrrol-1-yl)-2-(((1r,4r)-4-hydroxycyclohexyl)amino)benzamide (8f)] | 4.53 | > 100 |
| NC(=O)c1ccc(-n2cccc2Cc2ccncc2)cc1NC1CCC(O)CC1 (stereo not given) [2-(((1r,4r)-4-hydroxycyclohexyl)amino)-4-(2-(pyridin-4-ylmethyl)-1H-pyrrol-1-yl)benzamide (8q)] | 13.2 | > 100 |
| NC(=O)c1ccc(-n2cccc2Cc2cccc(O)c2)cc1NC1CCC(O)CC1 (stereo not given) [4-(2-(3-hydroxybenzyl)-1H-pyrrol-1-yl)-2-(((1r,4r)-4-hydroxycyclohexyl)amino)benzamide (8k)] | > 25 | > 100 |
